Experiment: gradient 5% acetonitrile 3 min, to 50% in 2 min, to 85% in 15 min, held 3 min, 100 µL/min
Conditions: column: Zorbax Extend-C18 2.1 x 50 mm; eluents: water / acetonitrile, 0.1% formic acid
Method in brief: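 Retention time was recorded from adduct peaks, which were picked computationally and each inspected manually. Pure standards ran in mixtures of ~100 molecules on HPLC coupled to a quadrupole time-of-flight mass spectrometer, in positive and negative ionization mode, through a Zorbax Extend-C18 column (2.1 × 50 mm, 1.8 μm) at 100 μL/min. Eluents were water and acetonitrile, each with 0.1% formic acid.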

Row | Compound | RP-LC retention time [s]
1 | O=C(CCC1CCN(c2cc(NC3CC3)ncn2)CC1)NCc1ccccc1F | 673
2 | c1ccc(-c2noc(-c3ccc(N4CCN(c5ccccn5)CC4)nc3)n2)cc1 | 768
3 | COc1ccc2c(c1)C1(CCN(S(=O)(=O)c3ccccc3)C1)C(=O)N2C (stereo not given) | 882
4 | CSc1ncccc1C(=O)NCc1cc(-c2ccc3c(c2)OCCO3)on1 | 748
5 | O=C(C1CCCN(c2cnc3nccnc3c2)C1)N1CCC(Cc2ccccc2)CC1 (stereo not given) | 892
6 | COc1ccccc1/C=C/c1nc(C#N)c(NCCN(C)C)o1 | 648
7 | CC(C)CC(=O)N1CCN(c2nc3ccccc3n(CC(C)C)c2=O)CC1 | 1080
8 | CCCCC(SC1=Nc2ccccc2C2=NC(Cc3c[nH]c4ccccc34)C(=O)N12)C(=O)OCC (stereo not given) | 1110
9 | N#Cc1ccc(C(=O)NC2CCN(C(=O)N3C[C@H]4C[C@H](C3)[C@H]3CCCC(=O)N3C4)CC2)cc1 | 640
10 | CCc1cc(C(=O)NC2CC2)nc2cc(-c3cccs3)nn12 | 1010
11 | CCc1nnc2c(=O)n(CC(=O)N3CCN(c4ccccn4)CC3)c3cccnc3n12 | 560
12 | O=C(c1ccc2c(c1)OCO2)N1CCN(Cc2nnnn2-c2ccc(F)c(F)c2)CC1 | 746
13 | CCc1nn(CCO)c(CC)c1Oc1cc(C#N)cc(C#N)c1 | 891
14 | COCCn1ccc2nc(C)c(C(=O)Nc3ccc4c(c3)OCCO4)cc2c1=O | 679
15 | CCn1c(C(=O)Nc2cc(C)ccc2C)cc2sc(Cl)cc21 | 1230
16 | CCc1c(C2CCN(C(=O)c3ccn(CC)n3)CC2)noc1N | 644
17 | CC(=O)N1C[C@@H]2CCCN3CCC[C@@H]([C@H]23)[C@H]1CCCC(=O)NCCCN(C)C1CCCCC1 | 547
18 | CCNc1nc(NCC)nc(-n2cnc(SC)n2)n1 | 718
19 | Cc1c(Br)cc(C(=O)NC(C)C)c(C)c1C | 838
20 | COc1ccc(C2(C(=O)N3CCC4(CC3)CN(C(C)C)C4c3ccccc3)CC2)cc1 (stereo not given) | 684
21 | Clc1ccc2nc(-c3ccccc3)c(Nc3ccc4c(c3)OCO4)n2c1 | 781
22 | CC1=C(N2CC2)C(=O)C(CO)=C(N2CC2)C1=O | 585
23 | CC(C)CCN(CC(=O)N1CCNCC1)C(=O)c1cccc(Br)c1 | 654

Row | Compound | RP-LC retention time [s]
24 | CSc1ccc(CNC(=O)C2CCN(c3cncnc3N3CCOCC3)CC2)cc1 | 637
25 | CCCOc1ccc(-c2nc(N3CCCCCC3)c3ccccc3n2)cc1 | 971
26 | Cc1cc(C)c(NS(=O)(=O)c2cc(-c3nc(C)cs3)sc2C)c(C)c1 | 1190
27 | O=C([C@@H]1C[C@H](F)CN1C(=O)c1ccco1)N1CCCCC1 | 626
28 | O=C(CCc1c(-c2ccc(Cl)cc2)nc2ccccn12)NCc1ccco1 | 655
29 | O=C(c1ccco1)N1CCN(S(=O)(=O)c2cc3c4c(c2)CCC(=O)N4CCC3)CC1 | 690
30 | Cc1ccc(Cn2cc(CCC(=O)N3CCN(c4ccccn4)CC3)c3ccccc32)cc1 | 777
31 | COc1ccc(OC)c(NC(=O)c2[nH]c(C)c(S(=O)(=O)N3CCCCC3)c2C)c1 | 1020
32 | O=C1NCC(=O)N2CC3(CCN(C(=O)C4CCCCC4)CC3)CC12 (stereo not given) | 624
33 | COc1ccc(Nc2c(-c3ccc(OC)c(OC)c3)nc3cnccn23)cc1OC | 672
34 | Clc1cccc(-c2nc(-c3cccc(-c4ccn[nH]4)c3)no2)c1 | 1120
35 | CCc1sc(NC(=O)Cn2nc3c(cc2=O)CCCC3)nc1C(=O)OC | 764
36 | Cc1nn(CCCC(=O)NCCN2CCCC2)c(=O)c2c(-n3cccc3)n(-c3ccccc3)nc12 | 666
37 | Cc1cc(C)c2c(N3CCOCC3)nc(C(=O)N(C)Cc3ccco3)nc2n1 | 611
38 | CC(C)NC(=O)N1CCCC(c2cccc(C(=O)NCCCN3CCCCC3)c2)C1 (stereo not given) | 623
39 | O=c1oc2c(CN3CCCC3)c(O)ccc2c2c1CCC2 | 588
40 | Cc1ccc2nc(-c3ccc(N4CCOCC4)cc3)c(Nc3ccccc3C)n2c1 | 755
41 | O=C(NCc1ccccn1)c1ccc(NC(=O)C2CC2)cc1N1CCCCCC1 | 593
42 | COc1ccc2c(c1)C1(CCN(S(=O)(=O)c3ccc4c(c3)oc(=O)n4C)C1)C(=O)N2C (stereo not given) | 818
43 | O=C(c1nccc2ccccc12)N1CCC(c2noc(C3CC3)n2)C1 (stereo not given) | 745
44 | Cc1nc(C(=O)N2CCSCC2)c(C)o1 | 620
45 | COc1ccccc1C(=O)N1CCN(c2ccc(-c3nc(C)c(C)s3)cn2)CC1 | 851
46 | O=C(CSc1nc(CC(=O)N2CCN(c3ccccn3)CC2)cs1)c1cccs1 | 567

More lines, now with the values ahead:

Row | RP-LC retention time [s] | Compound
47 | 1060 | CCn1c(=O)oc2cc(-c3noc(-c4ccc(C)cc4)n3)ccc21
48 | 860 | CCn1c(C(=O)NCCc2ccc(S(N)(=O)=O)cc2)cc2sc(Cl)cc21
49 | 573 | CCN1CCN(C(=O)C2Cn3cccc3C(=O)N2CC(C)C)CC1 (stereo not given)
50 | 805 | COc1ccccc1CNc1nccc(-n2ccc(C)n2)n1
51 | 749 | Cc1ccccc1C(=O)N1CCC2(CC1)NC(=O)c1cc(F)ccc1N2C
52 | 918 | Cn1ncc2c3ccccc3n(CCCC(=O)N3CCN(c4ccccc4)CC3)c2c1=O
53 | 866 | O=C(Nc1ncc(S(=O)(=O)c2ccc([N+](=O)[O-])cc2)s1)c1ccccc1F
54 | 677 | O=C(Cc1c[nH]c2ncccc12)NCc1ccc(C(F)(F)F)cc1
55 | 684 | c1coc(CN2CC(Oc3ccc(-c4noc(C5CC5)n4)cc3)C2)c1
56 | 745 | Cc1ccc2c(=O)c(C(=O)c3ccc(Cl)cc3)cn(CC(=O)NCC3CCCO3)c2n1 (stereo not given)
57 | 1210 | Cc1csc(-c2cc(S(=O)(=O)N3CCCc4ccccc43)c(C)s2)n1
58 | 784 | Cc1ccc(CNC(=O)c2nc(Nc3ccc(F)cc3)c3ccccc3n2)o1
59 | 847 | Cc1ccc(NC(=O)C2CCN(S(=O)(=O)c3cc(C(=O)N(C)C)cs3)CC2)cc1F
60 | 1120 | CCCNC(=O)c1ccc(CN2CC(=O)N3CCCCC3C2=O)cc1 (stereo not given)
61 | 767 | O=C(Nc1ccc(S(=O)(=O)N2CCOCC2)cc1)c1ccc(Cl)s1
62 | 773 | Cc1ccc(CNC(=O)c2cn(-c3ccc(NC(=O)C4CC4)cn3)cn2)cc1
63 | 902 | CCOc1ccccc1NC(=O)N1CCC2(C1)C(=O)N(C)c1ccccc12 (stereo not given)
64 | 832 | Cn1ncc(Br)c1C(=O)N1CCCC1c1ccc(F)cc1 (stereo not given)
65 | 1000 | CCC(c1cccs1)N1C(=O)[C@H]2CN(S(=O)(=O)Cc3ccccc3F)C[C@H]2C1=O (stereo not given in full)
66 | 875 | COc1ccc(-c2nnc(-c3cc(S(=O)(=O)N4CCC(C(=O)O)CC4)ccc3Cl)o2)cc1
67 | 647 | CN1C(=O)c2ccccc2C(C(=O)NCCCN2CCc3ccccc3C2)C1c1cccs1 (stereo not given)
68 | 679 | CN1C(=O)c2cccn2CC1CNS(=O)(=O)c1ccc(F)cc1 (stereo not given)

Row | RP-LC retention time [s] | Compound
69 | 915 | COCCCNC(=O)c1csc(N2CCN(c3ccc(F)cc3)CC2)n1
70 | 936 | CC1CCN(C(=O)C2c3ccccc3CCN2CC(=O)Nc2ccc(F)cc2Cl)CC1 (stereo not given)
71 | 859 | COc1ccc(CNC(=O)C2(c3ccc(NS(C)(=O)=O)cc3)CCCCC2)cc1
72 | 824 | COC(=O)c1c(NCCc2c[nH]c3ccccc23)c2cccc(Cl)c2[nH]c1=O
73 | 1060 | Cc1ccc(C)c(NC(=O)C2CCCN(S(=O)(=O)c3cc(-c4noc(C)n4)cs3)C2)c1 (stereo not given)
74 | 623 | COc1ccc2[nH]c(=O)c(CCC(=O)NCCN3CCc4ccccc4C3)cc2c1
75 | 590 | COCCn1c(C2CCN(S(=O)(=O)c3ccc(F)c(Cl)c3)C2)nc2ccncc21 (stereo not given)
76 | 819 | CC(C)CC(=O)Nc1ccc(-n2cnc(C(=O)N3CCN(c4ccccc4)CC3)c2)nc1
77 | 601 | Cn1c(N2CCN(S(=O)(=O)c3cc(F)ccc3F)CC2)nc2ccccc21
78 | 701 | N#Cc1ccc(C(=O)N2CC(n3cc(C(=O)NCC4CC4)nn3)C2)cc1
79 | 841 | CCN(CC)C(=O)Cn1nc2cc(C)nc(-c3ccc(C(F)(F)F)cc3)n2c1=O
80 | 792 | COc1ccc(-c2nnc(-c3cc(S(N)(=O)=O)ccc3Cl)o2)cc1
81 | 607 | Cc1oc(-c2[nH]ncc2C(=O)N2CCOCC2)cc1S(=O)(=O)NC1CC1
82 | 1140 | Cc1cc(Cl)ccc1S(=O)(=O)N1CC(c2nc(Cc3ccccc3)no2)C1
83 | 898 | Cc1cccc(-c2noc(-c3nn(-c4ccccc4)ccc3=O)n2)c1
84 | 1030 | O=c1ccc(-c2ccccc2)nn1CCc1nc(-c2cccc(Cl)c2)no1
85 | 748 | COc1cccc(CNC(=O)C2(C)Oc3cccnc3N(C)C2=O)c1 (stereo not given)
86 | 622 | COc1ccccc1NC(=O)c1cn2c(n1)CCCC2
87 | 790 | CCn1cc(-c2ccc(Cl)cc2)cc1C(=O)NCc1ccccn1
88 | 924 | CC(Cc1ccco1)NC(=O)CCCn1c(=O)c2cccn2c2ccc(Br)cc21 (stereo not given)
89 | 931 | CCN1c2cc(C)ccc2-n2cccc2C12CCN(C(=O)NCCCOC)CC2
90 | 1010 | CCCNS(=O)(=O)c1ccc(-c2cc(C(F)(F)F)on2)o1
